Test results published in PubChem BioAssay (NCI).
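Method: 48-hour compound exposure of cells in 96-well plates, five concentrations, linear interpolation of endpoints. TGI: total growth inhibition.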

Assays:
Assay in all cases: DTP human tumour cell line panel, 48 h
[1] = system: OVCAR-3 ovarian
[2] = system: NCI-H226 lung
[3] = system: DLD-1 colon
[4] = system: CCRF-CEM leukemia
[5] = system: SK-MEL-5 melanoma
[6] = system: OVCAR-8 ovarian
[7] = system: A549 NSCLC
[8] = system: RXF 393 renal
[9] = system: HCT-15 colon
[10] = system: NCI-H23 lung
[11] = system: XF 498 CNS
[12] = system: A498 renal
[13] = system: KM20L2 colon
[14] = system: NCI-H460 lung
[15] = system: MOLT-4 leukemia
[16] = system: TK-10 renal
[17] = system: U251 CNS
[18] = system: SK-OV-3 ovarian
[19] = system: MALME-3M melanoma
[20] = system: HCT-116 colon
[21] = system: M19-MEL melanoma
[22] = system: SK-MEL-2 melanoma
[23] = system: HOP-62 NSCLC
[24] = system: DMS 273 small cell lung
[25] = system: SK-MEL-28 melanoma
[26] = system: IGROV1 ovarian
[27] = system: RPMI-8226 leukemia
[28] = system: SW-620 colon
[29] = system: RXF-631 renal
[30] = system: UO-31 renal
[31] = system: SF-539 CNS
[32] = system: K-562 leukemia
[33] = system: EKVX NSCLC
[34] = system: SNB-75 CNS
[35] = system: OVCAR-5 ovarian
[36] = system: UACC-62 melanoma
[37] = system: DMS 114 small cell lung
[38] = system: M14 melanoma
[39] = system: ACHN renal
[40] = system: 786-0 renal
[41] = system: HT29 colon
[42] = system: SF-295 CNS
[43] = system: KM12 colon
[44] = system: CAKI-1 renal
[45] = system: OVCAR-4 ovarian
[46] = system: HCC-2998 colon
[47] = system: SNB-78 CNS
[48] = system: HL-60(TB) leukemia
[49] = system: UACC-257 melanoma
[50] = system: LXFL 529 NSCLC
[51] = system: SF-268 CNS
[52] = system: SN12C renal
[53] = system: NCI-H522 lung
[54] = system: HOP-92 NSCLC
[55] = system: COLO 205 colon
[56] = system: SNB-19 CNS
[57] = system: LOX IMVI melanoma
[58] = system: SR leukemia
[59] = system: HOP-18 NSCLC

Compound: CCOC(=O)C(C)(c1cn(C)c2ccccc12)c1cn(C)c2ccccc12
- TGI [1]: > 100 µM
- TGI [2]: > 100 µM
- TGI [3]: > 100 µM
- TGI [4]: > 100 µM
- TGI [5]: > 100 µM
- TGI [6]: > 100 µM
- TGI [7]: > 100 µM
- TGI [8]: > 100 µM
- TGI [9]: > 100 µM
- TGI [10]: > 100 µM
- TGI [11]: > 100 µM
- TGI [12]: > 100 µM
- TGI [13]: > 100 µM
- TGI [14]: > 100 µM
- TGI [15]: > 100 µM
- TGI [16]: > 100 µM
- TGI [17]: > 100 µM
- TGI [18]: > 100 µM
- TGI [19]: > 100 µM
- TGI [20]: > 100 µM
- TGI [21]: > 100 µM
- TGI [22]: > 100 µM
- TGI [23]: > 100 µM
- TGI [24]: > 100 µM
- TGI [25]: > 100 µM
- TGI [26]: > 100 µM
- TGI [27]: > 100 µM
- TGI [28]: > 100 µM
- TGI [29]: > 100 µM
- TGI [30]: > 100 µM
- TGI [31]: > 100 µM
- TGI [32]: > 100 µM
- TGI [33]: > 100 µM
- TGI [34]: 51.9 µM
- TGI [35]: > 100 µM
- TGI [36]: > 100 µM
- TGI [37]: > 100 µM
- TGI [38]: > 100 µM
- TGI [39]: > 100 µM
- TGI [40]: > 100 µM
- TGI [41]: > 100 µM
- TGI [42]: > 100 µM
- TGI [43]: > 100 µM
- TGI [44]: > 100 µM
- TGI [45]: > 100 µM
- TGI [46]: > 100 µM
- TGI [47]: > 100 µM
- TGI [48]: > 100 µM
- TGI [49]: > 100 µM
- TGI [50]: > 100 µM

Compound: N#CC(C(=O)CCC(=O)Nc1cccc(Cl)c1)c1ccccc1 (configuration not stated)
- TGI [1]: > 100 µM
- TGI [51]: > 100 µM
- TGI [2]: > 100 µM
- TGI [3]: > 100 µM
- TGI [52]: > 100 µM
- TGI [4]: > 100 µM
- TGI [5]: > 100 µM
- TGI [6]: > 100 µM
- TGI [7]: > 100 µM
- TGI [53]: > 100 µM
- TGI [8]: > 100 µM
- TGI [9]: > 100 µM
- TGI [54]: > 100 µM
- TGI [10]: > 100 µM
- TGI [12]: > 100 µM
- TGI [55]: > 100 µM
- TGI [13]: > 100 µM
- TGI [14]: > 100 µM
- TGI [15]: > 100 µM
- TGI [16]: > 100 µM
- TGI [17]: > 100 µM
- TGI [18]: > 100 µM
- TGI [19]: > 100 µM
- TGI [20]: > 100 µM
- TGI [21]: > 100 µM
- TGI [22]: > 100 µM
- TGI [23]: > 100 µM
- TGI [24]: > 100 µM
- TGI [25]: > 100 µM
- TGI [26]: > 100 µM
- TGI [27]: > 100 µM
- TGI [56]: > 100 µM
- TGI [29]: > 100 µM
- TGI [30]: > 100 µM
- TGI [31]: > 100 µM
- TGI [32]: > 100 µM
- TGI [33]: > 100 µM
- TGI [34]: > 100 µM
- TGI [35]: > 100 µM
- TGI [36]: > 100 µM
- TGI [37]: > 100 µM
- TGI [38]: > 100 µM
- TGI [39]: > 100 µM
- TGI [40]: > 100 µM
- TGI [41]: > 100 µM
- TGI [42]: > 100 µM
- TGI [43]: > 100 µM
- TGI [45]: > 100 µM
- TGI [46]: > 100 µM
- TGI [47]: > 100 µM
- TGI [57]: > 100 µM
- TGI [58]: > 100 µM
- TGI [48]: > 100 µM
- TGI [49]: > 100 µM
- TGI [59]: > 100 µM
- TGI [50]: > 100 µM

Compound: CCCCCCc1cc(C(=O)Nc2cccc(C(F)(F)F)c2)nc(N)n1
- TGI [1]: > 100 µM
- TGI [51]: > 100 µM
- TGI [2]: > 100 µM
- TGI [3]: > 100 µM
- TGI [52]: > 100 µM
- TGI [4]: > 100 µM
- TGI [5]: > 100 µM
- TGI [7]: > 100 µM
- TGI [8]: > 100 µM
- TGI [9]: > 100 µM
- TGI [54]: > 100 µM
- TGI [10]: > 100 µM
- TGI [12]: > 100 µM
- TGI [55]: > 100 µM
- TGI [13]: > 100 µM
- TGI [14]: > 100 µM
- TGI [15]: > 100 µM
- TGI [16]: > 100 µM
- TGI [17]: > 100 µM
- TGI [18]: > 100 µM
- TGI [19]: > 100 µM
- TGI [20]: > 100 µM
- TGI [21]: > 100 µM
- TGI [22]: > 100 µM
- TGI [23]: > 100 µM
- TGI [24]: > 100 µM
- TGI [25]: > 100 µM
- TGI [26]: > 100 µM
- TGI [27]: > 100 µM
- TGI [56]: > 100 µM
- TGI [28]: > 100 µM
- TGI [29]: > 100 µM
- TGI [30]: > 100 µM
- TGI [31]: > 100 µM
- TGI [32]: > 100 µM
- TGI [33]: > 100 µM
- TGI [34]: > 100 µM
- TGI [35]: > 100 µM
- TGI [36]: > 100 µM
- TGI [37]: > 100 µM
- TGI [38]: > 100 µM
- TGI [39]: > 100 µM
- TGI [40]: > 100 µM
- TGI [41]: > 100 µM
- TGI [42]: > 100 µM
- TGI [43]: > 100 µM
- TGI [44]: > 100 µM
- TGI [45]: > 100 µM
- TGI [46]: > 100 µM
- TGI [47]: > 100 µM
- TGI [57]: > 100 µM
- TGI [58]: > 100 µM
- TGI [48]: > 100 µM
- TGI [49]: > 100 µM
- TGI [59]: > 100 µM
- TGI [50]: > 100 µM
